# Several values for one entry are separate records, joined by “and”; a condition that tells them apart may be missing. Identical values can stand only once. Like-named read-outs stand apart in the source and are kept apart here.
# Assays:
# Streptococcus pneumoniae [1] = experiment: Experimental bacterial infection in mice, ED50; format: in vivo; details: S. pneumoniae infection, two doses, subcutaneous administration
# Method: (§1) When two doses of test compound were administered to mice in illustrative infections, the activity observed as measured as an ED50 value [effective dose in mg/kg to protect fifty percent of the test animals: See Warren Wick, et al., J. Bacteriol, 81, 233-235 (1961)].
# Staphylococcus aureus [2] = experiment: Experimental bacterial infection in mice, ED50; format: in vivo; details: S. aureus infection, two doses, subcutaneous administration
# Method: as §1
# Streptococcus pyogenes [3] = experiment: Experimental bacterial infection in mice, ED50; format: in vivo; details: S. pyogenes infection, two doses
# Method: as §1
# Streptococcus pneumoniae [4] = experiment: MIC, agar dilution (Table XV); format: cell-based
# Source text: (§2) ^1 MIC = minimum inhibitory concentration (μg/ml), agar dilution
# Staphylococcus aureus [5] = experiment: MIC, agar dilution (Table XV); format: cell-based
# Source text: as §2
# Streptococcus pyogenes [6] = experiment: MIC, agar dilution (Table XV); format: cell-based
# Source text: as §2
# [7] = system: S. roseosporus (ISP 5122; ATCC 23958); experiment: Antibiotic sensitivity of comparison culture (sensitivity discs); format: cell-based, Streptomyces roseosporus; parameters: key: + = sensitive (zones of inhibition); - = resistant (no zones of inhibition); details: discs on seeded ISP #2 agar; erythromycin 15 μg, cephalothin 30 μg, lincomycin 2 μg, nystatin 100 units, polymyxin B 300 units, streptomycin 10 μg, tetracycline 30 μg, vancomycin 30 μg
# Method: (§3) Temperature range, NaCl tolerance, pH range, and antibiotic sensitivity were done using ISP #2 agar medium. The range of temperatures were: 25°, 28°, 30°, 34°, 37°, 40°, 45°, 50° and 55° C. NaCl tolerance was measured by adding NaCl to the agar to equal: 0, 1, 2, 3, 4, 5, 6, 8, 10 and 12%. These were incubated at 30° C. The pH range was measured by adjusting the agar from pH 3.0 to 11.0 at increments of 1.0 pH units, just prior to pouring. Antibiotic sensitivity was determined using sensitivity discs padded onto seeded agar plates. Streptomyces roseosporus ISP 5122; ATCC 23958
# [8] = system: A21978.6 (Streptomyces roseosporus NRRL 11379); experiment: Antibiotic sensitivity of producing culture (sensitivity discs); format: cell-based; parameters: key: + = sensitive (zones of inhibition); - = resistant (no zones of inhibition); details: discs on seeded ISP #2 agar; erythromycin 15 μg, cephalothin 30 μg, lincomycin 2 μg, nystatin 100 units, polymyxin B 300 units, streptomycin 10 μg, tetracycline 30 μg, vancomycin 30 μg
# Method: as §3, with “plates.” for “plates. Streptomyces roseosporus ISP 5122; ATCC 23958”
# [9] = system: Neisseria gonorrhoeae 111076-4; experiment: MIC, standard agar-dilution test (Table XI); format: cell-based; details: aerobic, N. gonorrhoeae 111076-4, sodium salt form
# Peptococcus prevoti = experiment: MIC against anaerobic bacteria, standard agar-dilution (Table XIV); format: cell-based; details: anaerobe
# [10] = system: Staphylococcus aureus 3055; experiment: MIC, standard agar-dilution test (Table XI); format: cell-based; details: aerobic, S. aureus 3055, sodium salt form
# [11] = system: Fusobacterium necrophorum; experiment: MIC against anaerobic bacteria, standard agar-dilution (Table XIV); format: cell-based; details: anaerobe
# Propionibacterium acnes = experiment: as above; format: cell-based; details: anaerobe
# [12] = system: Streptococcus pyogenes C203; experiment: MIC, standard broth-dilution test (Table XII); format: cell-based; details: aerobic, S. pyogenes C203
# Fusobacterium symbiosum = experiment: MIC against anaerobic bacteria, standard agar-dilution (Table XIV); format: cell-based; details: anaerobe
# [13] = Rat, IV
# [14] = system: Viridans Streptococcus 9943; experiment: MIC, standard agar-dilution test (Table XI); format: cell-based; details: aerobic, sodium salt form
# Eubacterium aerofaciens = experiment: MIC against anaerobic bacteria, standard agar-dilution (Table XIV); format: cell-based; details: anaerobe
# [15] = Mouse
# Clostridium septicum = experiment: MIC against anaerobic bacteria, standard agar-dilution (Table XIV); format: cell-based; details: anaerobe
# [16] = system: Viridans Streptococcus 9943; experiment: MIC, standard broth-dilution test (Table XII); format: cell-based; details: aerobic
# Micrococcus luteus = experiment: Paper-disc agar-diffusion bioassay; details: individual factors, Na salts
# Actinomyces israelii = experiment: MIC against anaerobic bacteria, standard agar-dilution (Table XIV); format: cell-based; details: anaerobe
# [17] = system: Peptostreptococcus intermedius; experiment: as above; format: cell-based; details: anaerobe
# [18] = system: Streptococcus pneumoniae Park I; experiment: MIC, standard agar-dilution test (Table XI); format: cell-based; details: aerobic, S. pneumoniae Park I, sodium salt form
# [19] = system: Group D Streptococcus 282; experiment: MIC, standard agar-dilution test (Table XI); format: cell-based; details: aerobic, sodium salt form
# [20] = system: Group D Streptococcus 282; experiment: MIC, standard broth-dilution test (Table XII); format: cell-based; details: aerobic
# [21] = system: Streptococcus pneumoniae Park I; experiment: MIC, standard broth-dilution test (Table XII); format: cell-based; details: aerobic, S. pneumoniae Park I
# [22] = system: Streptococcus faecalis (Guze); experiment: In vitro susceptibility (MIC) of the S. faecalis Guze strain; format: cell-based
# Source text: ^1 In vitro susceptibility of the S. faecalis Guze strain
# [23] = system: Streptococcus faecalis (Guze); experiment: Streptococcus faecalis descending rat pyelonephritis test; details: for Percent of Rats Cured: cure = kidney counts less than 10^2 per g; for Percent of Rats with a 4-Log Titer Decrease: once daily, kidney titer vs infected controls
# Clostridium perfringens = details: anaerobe, agar-dilution
# [24] = system: Peptostreptococcus anaerobius; experiment: MIC against anaerobic bacteria, standard agar-dilution (Table XIV); format: cell-based; details: anaerobe
# [25] = system: Staphylococcus aureus 3055; experiment: MIC, standard broth-dilution test (Table XII); format: cell-based; details: aerobic, S. aureus 3055
# [26] = system: Streptococcus pyogenes C203; experiment: MIC, standard agar-dilution test (Table XI); format: cell-based; details: aerobic, S. pyogenes C203, sodium salt form
# Staphylococcus aureus [27] = experiment: MIC against clinical isolates, ICS agar-dilution (Table XIII); format: cell-based; details: 10 clinical isolates, bracket = number of isolates with this MIC or range
# Bacteroides fragilis = experiment: MIC against anaerobic bacteria, standard agar-dilution (Table XIV); format: cell-based; details: anaerobe
# [28] = Electrometric titration in 66% aqueous dimethylformamide; format: physicochemical; details: 66% DMF, Na salt forms; factors: two determinations
# [29] = system: Peptococcus asaccharolyticus; experiment: MIC against anaerobic bacteria, standard agar-dilution (Table XIV); format: cell-based; details: anaerobe
compound,measurement,setting,value
"CC[C@H]1OC(=O)[C@H](C)[C@@H](O[C@H]2C[C@@](C)(OC)[C@@H](O)[C@H](C)O2)[C@H](C)[C@@H](O[C@@H]2O[C@H](C)C[C@H](N(C)C)[C@H]2O)[C@](C)(O)C[C@@H](C)C(=O)[C@H](C)[C@@H](O)[C@]1(C)O [Erythromycin, reference compound]",ED50,"Streptococcus pneumoniae [1]; Streptococcus pneumoniae, sc, read-out: ED50",7.3 mg/kg
same,ED50,"Staphylococcus aureus [2]; Staphylococcus aureus, sc, read-out: ED50",0.5 mg/kg
same,ED50,"Streptococcus pyogenes [3]; Streptococcus pyogenes, sc, subcutaneous administration, read-out: ED50",0.64 mg/kg
same,MIC,Streptococcus pneumoniae [4]; read-out: MIC,0.5 µg/mL
same,MIC,Staphylococcus aureus [5]; read-out: MIC,0.13 µg/mL
same,MIC,Streptococcus pyogenes [6]; read-out: MIC,0.13 µg/mL
same,"Antibiotic Sensitivity, S. roseosporus",[7],+
same,"Antibiotic Sensitivity, A21978.6",[8],+
C[C@@H]1[C@H](O)[C@@H](C)/C=C/C=C/CC/C=C/C=C/C=C/C=C/C(O[C@H]2O[C@H](C)[C@@H](O)[C@H](N)[C@@H]2O)CC2O[C@](O)(CC(O)C(O)CCC(O)CC(O)CC(O)CC(=O)O[C@H]1C)CC(O)C2C(=O)O (stereo partly shown) [Nystatin],"Antibiotic Sensitivity, S. roseosporus",[7],-
same,"Antibiotic Sensitivity, A21978.6",[8],-
CC(C)CCCCCCCCC(=O)NC(Cc1c[nH]c2ccccc12)C(=O)NC(CC(N)=O)C(=O)NC(CC(=O)O)C(=O)NC1C(=O)NCC(=O)NC(CCCN)C(=O)NC(CC(=O)O)C(=O)NC(C)C(=O)NC(CC(=O)O)C(=O)NCC(=O)NC(CO)C(=O)NC(C(C)CC(=O)O)C(=O)NC(CC(=O)c2ccccc2N)C(=O)OC1C (stereo not shown) [Factor C2],MIC,[9],4.0 µg/mL
same,MIC,Peptococcus prevoti,1.0 µg/mL
same,MIC,[10],0.13 µg/mL
same,ED50,Streptococcus pneumoniae [1],0.14 mg/kg
same,ED50,Staphylococcus aureus [2],0.16 mg/kg
same,ED50,Streptococcus pyogenes [3]; oral administration,59 mg/kg
same,ED50,Streptococcus pyogenes [3]; subcutaneous administration,0.032 mg/kg
same,MIC,[11],64 µg/mL
same,MIC,Propionibacterium acnes,2 µg/mL
same,MIC,[12],0.25 µg/mL
same,MIC,Fusobacterium symbiosum,> 128 µg/mL
same,LD50,[13],204 ± 17 mg/kg
same,MIC,Streptococcus pneumoniae [4],0.13 µg/mL
same,MIC,Staphylococcus aureus [5],0.13 µg/mL
same,MIC,Streptococcus pyogenes [6],0.13 µg/mL
same,MIC,[14],1.0 µg/mL
same,MIC,Eubacterium aerofaciens,8 µg/mL
same,LD50,[15]; IV,150 to 250 mg/kg
same,LD50,[15]; SC,175 mg/kg
same,MIC,Clostridium septicum,1.0 µg/mL
same,MIC,[16],16.0 µg/mL
same,Bioassay (Micrococcus luteus),Micrococcus luteus,1390 units/mg
same,MIC,Actinomyces israelii,1.0 µg/mL
same,MIC,[17],1.0 µg/mL
same,MIC,[18],0.25 µg/mL
same,MIC,[19],0.25 µg/mL
same,MIC,[20],1.0 µg/mL
same,MIC,[21],1.0 µg/mL
same,MIC,[22],0.25 µg/mL
same,Percent of Rats Cured,[23]; 1.0 mg/kg x 7 subcutaneous,89
same,Percent of Rats with a 4-Log Titer Decrease,[23]; 1.0 mg/kg x 7 subcutaneous,100
same,MIC,Clostridium perfringens,8 µg/mL
same,MIC,[24],1.0 µg/mL
same,MIC,[25],0.5 µg/mL
same,MIC,[26],0.13 µg/mL
same,Minimum Inhibitory Concentration,Staphylococcus aureus [27],0.12 to 0.25 µg/mL
same,MIC,Bacteroides fragilis,> 128 µg/mL
same,pKa Values (first group),[28],5.8 and 5.93
same,pKa Values (second group),[28],7.6 and 7.63
same,MIC,[29],2 µg/mL
CN(C)[C@@H]1C(O)=C(C(N)=O)C(=O)[C@@]2(O)C(O)=C3C(=O)c4c(O)cccc4[C@@](C)(O)[C@H]3C[C@@H]12 [Tetracycline],"Antibiotic Sensitivity, S. roseosporus",[7],+
same,"Antibiotic Sensitivity, A21978.6",[8],+
CCC[C@@H]1C[C@@H](C(=O)N[C@@H]([C@H]2O[C@H](SC)[C@H](O)[C@@H](O)[C@H]2O)[C@@H](C)O)N(C)C1 [Lincomycin],"Antibiotic Sensitivity, S. roseosporus",[7],-
same,"Antibiotic Sensitivity, A21978.6",[8],-
[H]/N=C(/N)N[C@H]1[C@H](O)[C@@H](O)[C@H](O[C@@H]2O[C@@H](C)[C@](O)(C=O)[C@H]2O[C@@H]2O[C@@H](CO)[C@H](O)[C@@H](O)[C@@H]2NC)[C@@H](N/C(N)=N\[H])[C@@H]1O [Streptomycin],"Antibiotic Sensitivity, S. roseosporus",[7],+
same,"Antibiotic Sensitivity, A21978.6",[8],+
CC(=O)OCC1=C(C(=O)O)N2C(=O)[C@@H](NC(=O)Cc3cccs3)[C@H]2SC1 [Cephalothin],"Antibiotic Sensitivity, S. roseosporus",[7],+
same,"Antibiotic Sensitivity, A21978.6",[8],+
"CN[C@H](CC(C)C)C(=O)N[C@H]1C(=O)N[C@@H](CC(N)=O)C(=O)N[C@H]2C(=O)N[C@H]3C(=O)N[C@H](C(=O)N[C@H](C(=O)O)c4cc(O)cc(O)c4-c4cc3ccc4O)[C@H](O)c3ccc(c(Cl)c3)Oc3cc2cc(c3O[C@@H]2O[C@H](CO)[C@@H](O)[C@H](O)[C@H]2O[C@H]2C[C@](C)(N)[C@H](O)[C@H](C)O2)Oc2ccc(cc2Cl)[C@H]1O [Vancomycin, reference compound]","Antibiotic Sensitivity, S. roseosporus",[7],+
same,Percent of Rats Cured,[23]; 12.0 mg/kg x 7 subcutaneous,33
same,Percent of Rats with a 4-Log Titer Decrease,[23]; 12.0 mg/kg x 7 subcutaneous,55
same,"Antibiotic Sensitivity, A21978.6",[8],+
Polymyxin B,"Antibiotic Sensitivity, S. roseosporus",[7],-
same,"Antibiotic Sensitivity, A21978.6",[8],+

# Reference: USRE32333E, “A-21978 Antibiotics and process for their production” (priority 1985, dated 1987)
